Results from ChEMBL document CHEMBL4842336, “Synthesis and computational studies of novel fused pyrimidinones as a promising scaffold with analgesic, anti-inflammatory and COX inhibitory potential” (Eur J Med Chem, 2021).

Key:
Rattus norvegicus [1] = assay: Analgesic activity against p-benzoquinone induced writhing in albino rat model assessed as protection rate at 28 uM/kg, ip measured after 30 mins relative to indomethacin; format: functional; settings: 0.5 h, at 28 µmol/kg
Rattus norvegicus [2] = assay: Analgesic activity against p-benzoquinone induced writhing in albino rat model assessed as protection rate at 28 uM/kg, ip measured after 30 mins relative to control; format: functional; settings: 0.5 h, at 28 µmol/kg
[3] = Ulcerogenic activity in fasted albino rat assessed as incidence of ulceration at 28 uM/kg, po administered for 3 consecutive days (reference value: 0 %); format: toxicity, organism-based; settings: in vivo, 72 h, time 3 day
[4] = Toxicity in albino rat assessed as decrease in body weight at; settings: in vivo, 24 h, dose <140 µM/Kg
Rattus norvegicus [5] = assay: Anti-inflammatory activity Wistar albino rat model of carragenan-induced paw edema assessed as inhibition of inflammation at 28 uM/kg, ip measured after 3 hrs by plethysmometer relative to control; format: functional; set-up: scale not given: the % may be the effect or the level left; settings: at 28 µmol/kg
[6] = Ulcerogenic activity in fasted albino rat assessed as number of ulcers at 28 uM/kg, po administered for 3 consecutive days (reference value: 0 %); format: toxicity, organism-based; settings: in vivo, 72 h, time 3 day
[7] = Ulcerogenic activity in fasted albino rat assessed as severity of ulcers at 28 uM/kg, po administered for 3 consecutive days (reference value: 0 %); format: toxicity, organism-based; settings: in vivo, 72 h, time 3 day
Rattus norvegicus [8] = assay: Anti-inflammatory activity in Wistar albino rat model of carragenan-induced paw edema assessed as reduction in edema thickness at 28 uM/kg, ip measured after 3 hrs by plethysmometer (reference value: 1.64 +/- 0.04 millimeter); format: functional; set-up: scale not given: the % may be the effect or the level left; settings: at 28 µmol/kg
[9] = target: T1, Prostaglandin G/H synthase 1 (Ovis aries, UniProt P05979); assay: Inhibition of ovine COX-1 using arachidonic acid as substrate by fluorescence assay
T1 sequence (P05979 whole entry): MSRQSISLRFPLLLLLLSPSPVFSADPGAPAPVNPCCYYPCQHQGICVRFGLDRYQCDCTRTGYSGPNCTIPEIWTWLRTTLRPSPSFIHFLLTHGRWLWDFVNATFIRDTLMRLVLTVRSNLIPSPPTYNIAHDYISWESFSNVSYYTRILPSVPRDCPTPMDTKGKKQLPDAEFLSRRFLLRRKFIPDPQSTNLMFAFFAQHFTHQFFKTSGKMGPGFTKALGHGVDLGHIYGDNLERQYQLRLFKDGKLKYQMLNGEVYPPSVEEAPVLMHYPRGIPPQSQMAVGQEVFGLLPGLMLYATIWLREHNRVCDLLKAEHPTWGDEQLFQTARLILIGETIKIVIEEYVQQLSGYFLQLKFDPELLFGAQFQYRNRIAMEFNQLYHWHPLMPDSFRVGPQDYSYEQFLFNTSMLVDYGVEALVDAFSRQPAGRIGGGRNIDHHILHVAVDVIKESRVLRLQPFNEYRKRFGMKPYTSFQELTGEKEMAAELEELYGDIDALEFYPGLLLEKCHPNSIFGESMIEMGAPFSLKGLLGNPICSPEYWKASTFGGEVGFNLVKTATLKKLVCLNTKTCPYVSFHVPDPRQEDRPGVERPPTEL

Rattus norvegicus [10] = assay: Anti-inflammatory activity in Wistar albino rat model of carragenan-induced paw edema assessed as inhibition of inflammation at 28 uM/kg, ip measured after 2 hrs by plethysmometer relative to control; format: functional
Rattus norvegicus [11] = assay: Anti-inflammatory activity in Wistar albino rat model of carragenan-induced paw edema assessed as reduction in edema thickness at 28 uM/kg, ip measured after 2 hrs by plethysmometer (Rvb =1.6 +/- 0.12 millimeter); format: functional
[12] = Ulcerogenic activity in fasted albino rat assessed as ulcer index at 28 uM/kg, po administered for 3 consecutive days (reference value: 0); format: toxicity, organism-based; settings: in vivo, 72 h, time 3 day

Cc1nc2sc(-c3ccc(Cl)cc3)nn2c(=O)c1CCN1CCCCC1
Activity (Rattus norvegicus [1]): 60% | Activity (Rattus norvegicus [2]): 50%

Cc1nc2oc(-c3ccc(Cl)cc3)nn2c(=O)c1CCN1CCOCC1
Activity (Rattus norvegicus [1]): 80% | Activity (Rattus norvegicus [2]): 66%

COc1ccc(N2CCN(CCc3c(C)nc4oc(-c5ccccc5)nn4c3=O)CC2)cc1
Activity [3]: 2% | Activity [4]: Non-Toxic | Activity (Rattus norvegicus [5]): 61.7% | Activity [6]: 0.8% | Activity [7]: 1% | Activity (Rattus norvegicus [8]): 73.12% | IC50 [9]: 140 nM | Activity (Rattus norvegicus [10]): 0.62 mm | Activity (Rattus norvegicus [11]): 0.43 mm | Activity (Rattus norvegicus [1]): 120% | UI [12]: 3.8 | Activity (Rattus norvegicus [2]): 100%

Cc1nc2oc(-c3ccc(Cl)cc3)nn2c(=O)c1CCN1CCCCC1
Activity (Rattus norvegicus [1]): 80% | Activity (Rattus norvegicus [2]): 66%

COc1ccc(N2CCN(CCc3c(C)nc4sc(-c5ccc(Cl)cc5)nn4c3=O)CC2)cc1
Activity (Rattus norvegicus [1]): 60% | Activity (Rattus norvegicus [2]): 66%

Cc1nc2oc(-c3ccccc3)nn2c(=O)c1CCN1CCCCC1
Activity [3]: 4% | Activity [4]: Non-Toxic | Activity (Rattus norvegicus [5]): 56.16% | Activity [6]: 2.2% | Activity [7]: 1.2% | Activity (Rattus norvegicus [8]): 76.25% | IC50 [9]: 350 nM | Activity (Rattus norvegicus [10]): 0.7 mm | Activity (Rattus norvegicus [11]): 0.38 mm | Activity (Rattus norvegicus [1]): 100% | UI [12]: 7.4 | Activity (Rattus norvegicus [2]): 83%

Cc1nc2oc(-c3ccccc3)nn2c(=O)c1CCN1CCN(c2ccccc2)CC1
Activity (Rattus norvegicus [1]): 60% | Activity (Rattus norvegicus [2]): 50%

Cc1nc2oc(-c3ccccc3)nn2c(=O)c1CCN1CCOCC1
Activity (Rattus norvegicus [1]): 60% | Activity (Rattus norvegicus [2]): 50%

Cc1nc2sc(-c3ccc(Cl)cc3)nn2c(=O)c1CCN1CCOCC1
Activity (Rattus norvegicus [1]): 80% | Activity (Rattus norvegicus [2]): 66%

Cc1nc2sc(-c3ccc(Cl)cc3)nn2c(=O)c1CCN1CCN(c2ccccc2)CC1
Activity (Rattus norvegicus [1]): 60% | Activity (Rattus norvegicus [2]): 66%

COc1ccc2c(c1)c(CC(=O)O)c(C)n2C(=O)c1ccc(Cl)cc1 [INDOMETHACIN]
Activity [3]: 8% | Activity (Rattus norvegicus [5]): 66.46% | Activity [6]: 2.6% | Activity [7]: 1.18% | Activity (Rattus norvegicus [8]): 73.29% | Activity (Rattus norvegicus [10]): 0.55 mm | Activity (Rattus norvegicus [11]): 0.42 mm | Activity (Rattus norvegicus [1]): 100% | UI [12]: 11.78 | Activity (Rattus norvegicus [2]): 83%

COc1ccc(N2CCN(CCc3c(C)nc4oc(-c5ccc(Cl)cc5)nn4c3=O)CC2)cc1
Activity [3]: 4% | Activity [4]: Non-Toxic | Activity (Rattus norvegicus [5]): 91% | Activity [6]: 0.8% | Activity [7]: 1% | Activity (Rattus norvegicus [8]): 73.12% | IC50 [9]: 350 nM | Activity (Rattus norvegicus [10]): 0.14 mm | Activity (Rattus norvegicus [11]): 0.43 mm | Activity (Rattus norvegicus [1]): 100% | UI [12]: 5.8 | Activity (Rattus norvegicus [2]): 83%

Cc1nc2oc(-c3ccc(Cl)cc3)nn2c(=O)c1CCN1CCN(c2ccccc2)CC1
Activity [3]: 4% | Activity [4]: Non-Toxic | Activity (Rattus norvegicus [5]): 70.73% | Activity [6]: 0.6% | Activity [7]: 1% | Activity (Rattus norvegicus [8]): 94.75% | IC50 [9]: 148 nM | Activity (Rattus norvegicus [10]): 0.48 mm | Activity (Rattus norvegicus [11]): 0.08 mm | Activity (Rattus norvegicus [1]): 100% | UI [12]: 5.6 | Activity (Rattus norvegicus [2]): 83%
